Paper PMC4549746, “Zearalenone in the Intestinal Tissues of Immature Gilts Exposed per os to Mycotoxins” (Toxins, 2015)
“And” between values parts separate entries of the source, which are not always exact repeats. Equal entries are not always repeated. Where two headings read alike, the source gives them in different places.

Test: ZEN concentrations and carryover factor in intestinal tissues and liver of pre-pubertal gilts exposed per os (HPLC)
Format: in vivo
Conditions: 40 μg/kg BW daily per os; for concentration at 4 weeks / concentration at 5 weeks / concentration at 1 week / concentration at 2 weeks / concentration at 3 weeks / concentration at 6 weeks: female, pig, oral
Procedure: The animals were divided into an experimental group (E, n = 18) and a control group (C, n = 21). Group E animals were orally administered ZEN at 40 μg/kg BW. Group C pigs were fed a placebo. The animals were fed complete diets in a restricted feeding regimen (Table 1). The daily dose of ZEN (40 µg/kg BW) was administered to each animal individually, which corresponds to exposure to 957–1014 µg ZEN/kg of a complete diet, depending on daily feed intake. Zearalenone was biosynthesized, purified and standardized by the Department of Chemistry of the Poznań University of Life Sciences. The experiment covered a period of 42 days. The mycotoxin was administered per os daily, in gelatine capsules before the morning feeding. The ZEN dose was adjusted to the body weight of the experimental animals. The mycotoxin was administered in capsules to prevent problems associated with uneven feed intake. Mycotoxin samples were diluted in 300 μL of 96% ethyl alcohol (96% ethyl alcohol, SWW 2442-90, Polskie Odczynniki Chemiczne SA, Gliwice, Poland) to the required dose level (based on body weight). Final solutions were stored at room temperature for 12 h to evaporate the solvent. The animals were weighed every 7 days to update mycotoxin doses for each gilt. Three animals from the experimental group and the control group each were sacrificed on Days 1, 7, 14, 21, 28, 35 and 42 (a total of 6 gilts in each week of exposure), excluding day 1, when only 3 control group animals were scarified. Every week, tissue samples were collected from the porcine gastrointestinal tract (duodenum, first and middle sections, jejunum, ileum, cecum, ascending colon, transverse colon, descending colon, middle section, and the liver, left lobe). Tissue samples were collected from the whole intestinal cross-sections.
Post-mortem tissue samples were collected from the duodenum, jejunum, ileum, cecum, ascending colon, transverse colon, descending colon and the liver after rinsing with phosphate buffer. Pure tissues were stored at −80 °C until shredding and extraction.
Tissue samples (2 g) were homogenized with 9 cm^3 of methanol for 4 min; they were transferred to centrifuge tubes with a minimal amount of the sediment, and the remainder was combined with 5 cm^3 of methanol and repeatedly homogenized. The extracts were combined and centrifuged for 10 min. The supernatant was transferred to a graduated test tube; its volume was read from the scale, and it was evaporated under a stream of nitrogen at a temperature of 60 °C to 0.1–0.2 cm^3 of water. The evaporated product was combined with 2 cm^3 of deionized water, 2 cm^3 of 0.2 M sodium acetate and 500 µL of […] solution. After 16 h of incubation at 37 °C, the reaction was stopped by adding 0.5 cm^3 of acetonitrile. The mixture was quantitatively transferred to a centrifuge tube; it was combined with 10 cm^3 of deionized water and centrifuged for 10 min at 3500 rpm. The supernatant was applied to the Zearala-Test™ column at the rate of 1–2 drops per second. Mycotoxins were eluted from the column with 1.5 mL of methanol; the solvent was evaporated, and the residue was reconstituted with 1 mL of methanol for HPLC analysis.
The concentrations of ZEN and its derivatives were determined by HPLC with the use of the Waters 2695 Separations Module, Waters 2475 Multi λ Fluorescence Detector and Waters 2996 Array Detector. Excitation and emission wavelengths were 274 and 440 nm, respectively. The reverse-phase column was C-18 Nova Pak (3.9 × 150 mm), and the mobile phase was acetonitrile-water-methanol (46:46:8, v/v/v) at a flow rate of 0.5 mL·min^−1. The mycotoxins were quantified by measuring the […] of the peaks based on the relevant calibration curves (correlation coefficient of 0.9996 for ZEN, 0.9989 for α-ZEL and 0.9976 for β-ZEL). Detection limits were determined at 0.001 µg·g^−1 for ZEN, 0.003 µg·g^−1 for α-ZEL and 0.002 µg·g^−1 for β-ZEL. […]

[1] = Week I of exposure, total ZEN dose 280 µg/kg BW
[2] = Week II of exposure, total ZEN dose 560 µg/kg BW
[3] = Week III of exposure, total ZEN dose 840 µg/kg BW
[4] = Week IV of exposure, total ZEN dose 1120 µg/kg BW
[5] = Week V of exposure, total ZEN dose 1400 µg/kg BW
[6] = Week VI of exposure, total ZEN dose 1680 µg/kg BW

## C[C@H]1CCCC(=O)CCC/C=C/c2cc(O)cc(O)c2C(=O)O1 [ZEN, zearalenone]
[1]
  Carryover Factor (CF), Ascending Colon: 0.0054
  Carryover Factor (CF), Cecum: 0.0162
  Carryover Factor (CF), Descending Colon: 0.0167
  Carryover Factor (CF), Duodenum: 0.031
  Carryover Factor (CF), Ileum: 0.016
  Carryover Factor (CF), Jejunum: 0.035
  Carryover Factor (CF), Liver: 0.0225
  Carryover Factor (CF), Transverse Colon: 0.0049
[2]
  Carryover Factor (CF), Ascending Colon: 0.0028
  Carryover Factor (CF), Cecum: 0.0075
  Carryover Factor (CF), Descending Colon: 0.0121
  Carryover Factor (CF), Duodenum: 0.022
  Carryover Factor (CF), Ileum: 0.009
  Carryover Factor (CF), Jejunum: 0.035
  Carryover Factor (CF), Liver: 0.0139
  Carryover Factor (CF), Transverse Colon: 0.0082
[3]
  Carryover Factor (CF), Ascending Colon: 0.0037
  Carryover Factor (CF), Descending Colon: 0.0090
  Carryover Factor (CF), Duodenum: 0.014
  Carryover Factor (CF), Ileum: 0.008
  Carryover Factor (CF), Jejunum: 0.016
  Carryover Factor (CF), Liver: 0.0154
  Carryover Factor (CF), Transverse Colon: 0.0046
[4]
  Carryover Factor (CF), Ascending Colon: 0.0042
  Carryover Factor (CF), Cecum: 0.0030
  Carryover Factor (CF), Descending Colon: 0.1830
  Carryover Factor (CF), Duodenum: 0.019
  Carryover Factor (CF), Ileum: 0.004
  Carryover Factor (CF), Jejunum: 0.039
  Carryover Factor (CF), Liver: 0.0162
  Carryover Factor (CF), Transverse Colon: 0.0065
  ZEN Concentrations (x¯ and SD), Ascending Colon: 4.69 ± 0.45 ng/g
  ZEN Concentrations (x¯ and SD), Descending Colon: 205.01 ± 94.70 ng/g
  ZEN Concentrations (x¯ and SD), Jejunum: 43.82 ± 7.63 ng/g
  ZEN Concentrations (x¯ and SD), Transverse Colon: 7.37 ± 1.66 ng/g
[5]
  Carryover Factor (CF), Ascending Colon: 0.0024
  Carryover Factor (CF), Cecum: 0.0129
  Carryover Factor (CF), Descending Colon: 0.1264
  Carryover Factor (CF), Duodenum: 0.091
  Carryover Factor (CF), Ileum: 0.002
  Carryover Factor (CF), Jejunum: 0.010
  Carryover Factor (CF), Liver: 0.0142
  Carryover Factor (CF), Transverse Colon: 0.0046
  ZEN Concentrations (x¯ and SD), Cecum: 18.17 ± 5.02 ng/g
  ZEN Concentrations (x¯ and SD), Duodenum: 128 ng/g and 128.18 ± 64.54 ng/g
[6]
  Carryover Factor (CF), Ascending Colon: 0.0014
  Carryover Factor (CF), Cecum: 0.0081
  Carryover Factor (CF), Descending Colon: 0.0666
  Carryover Factor (CF), Duodenum: 0.048
  Carryover Factor (CF), Ileum: 0.016
  Carryover Factor (CF), Jejunum: 0.005
  Carryover Factor (CF), Liver: 0.0136
  Carryover Factor (CF), Transverse Colon: 0.0039
  ZEN Concentrations (x¯ and SD), Ileum: 27.52 ± 10.28 ng/g
  ZEN Concentrations (x¯ and SD), Liver: 23.00 ± 0.79 ng/g
Average of Weeks I-VI
  CF, Average values, Ascending Colon: 0.0033
  CF, Average values, Cecum: 0.0089
  CF, Average values, Descending Colon: 0.0688
  CF, Average values, Duodenum: 0.0375
  CF, Average values, Ileum: 0.0091
  CF, Average values, Jejunum: 0.0233
  CF, Average values, Liver: 0.0159
  CF, Average values, Transverse Colon: 0.0054
  ZEN concentration, Average values, Ascending Colon: 2.805 ng/g
  ZEN concentration, Average values, Descending Colon: 85.525 ng/g
  ZEN concentration, Average values, Duodenum: 43.93 ng/g
  ZEN concentration, Average values, Ileum: 8.705 ng/g
  ZEN concentration, Average values, Jejunum: 18.208 ng/g
  ZEN concentration, Average values, Liver: 14.72 ng/g
Between Week I and Week V
  average ileal concentrations of ZEN: 4.9 ng/g
Ascending colon, 40 μg/kg BW daily, Week IV of exposure, total ZEN dose 1120 µg/kg BW, read-out: ZEN Concentrations (x¯ and SD), Ascending Colon
  concentration at 4 weeks: 4.7 ng/g
Ascending colon, 40 μg/kg BW daily, Week V of exposure, total ZEN dose 1400 µg/kg BW, read-out: ZEN Concentrations (x¯ and SD), Ascending Colon
  concentration at 5 weeks: 3.4 ± 0.54 ng/g
Ascending colon, 40 μg/kg BW, Week I of exposure, total ZEN dose 280 µg/kg BW, read-out: ZEN Concentrations (x¯ and SD), Ascending Colon
  concentration at 1 week: 1.53 ± 1.95 ng/g
Ascending colon, 40 μg/kg BW, Week II of exposure, total ZEN dose 560 µg/kg BW, read-out: ZEN Concentrations (x¯ and SD), Ascending Colon
  concentration at 2 weeks: 1.59 ± 2.76 ng/g
Ascending colon, 40 μg/kg BW, Week III of exposure, total ZEN dose 840 µg/kg BW, read-out: ZEN Concentrations (x¯ and SD), Ascending Colon
  concentration at 3 weeks: 3.16 ± 1.79 ng/g
Ascending colon, 40 μg/kg BW, Week VI of exposure, total ZEN dose 1680 µg/kg BW, read-out: ZEN Concentrations (x¯ and SD), Ascending Colon
  concentration at 6 weeks: 2.46 ± 1.92 ng/g
cecum, 40 μg/kg BW daily, Week V of exposure, total ZEN dose 1400 µg/kg BW, read-out: ZEN Concentrations (x¯ and SD), Cecum
  concentration at 5 weeks: 18.2 ng/g
cecum, 40 μg/kg BW, Week VI of exposure, total ZEN dose 1680 µg/kg BW, read-out: ZEN Concentrations (x¯ and SD), Cecum
  concentration at 6 weeks: 13.7 ± 1.17 ng/g
Descending colon, 40 μg/kg BW daily, Week IV of exposure, total ZEN dose 1120 µg/kg BW, read-out: ZEN Concentrations (x¯ and SD), Descending Colon
  concentration at 4 weeks: 205 ng/g
Descending colon, 40 μg/kg BW daily, Week V of exposure, total ZEN dose 1400 µg/kg BW, read-out: ZEN Concentrations (x¯ and SD), Descending Colon
  concentration at 5 weeks: 177 ± 50.6 ng/g
Descending colon, 40 μg/kg BW, Week VI of exposure, total ZEN dose 1680 µg/kg BW, read-out: ZEN Concentrations (x¯ and SD), Descending Colon
  concentration at 6 weeks: 112 ± 13.7 ng/g
duodenum, 40 μg/kg BW daily, Week I of exposure, total ZEN dose 280 µg/kg BW, read-out: ZEN Concentrations (x¯ and SD), Duodenum
  concentration at 1 week: 8.6 ng/g
duodenum, 40 μg/kg BW daily, Week V of exposure, total ZEN dose 1400 µg/kg BW, read-out: ZEN Concentrations (x¯ and SD), Duodenum
  concentration at 5 weeks: 128 ng/g
duodenum, 40 μg/kg BW, Week VI of exposure, total ZEN dose 1680 µg/kg BW, read-out: ZEN Concentrations (x¯ and SD), Duodenum
  concentration at 6 weeks: 80.7 ± 4.34 ng/g
ileum, 40 μg/kg BW daily, Week VI of exposure, total ZEN dose 1680 µg/kg BW, read-out: ZEN Concentrations (x¯ and SD), Ileum
  concentration at 6 weeks: 27.5 ng/g
jejunum, 40 μg/kg BW daily, Week IV of exposure, total ZEN dose 1120 µg/kg BW, read-out: ZEN Concentrations (x¯ and SD), Jejunum
  concentration at 4 weeks: 43.8 ng/g
jejunum, 40 μg/kg BW daily, Week VI of exposure, total ZEN dose 1680 µg/kg BW, read-out: ZEN Concentrations (x¯ and SD), Jejunum
  concentration at 6 weeks: 8.3 ng/g
liver, 40 μg/kg BW daily, Week IV of exposure, total ZEN dose 1120 µg/kg BW, read-out: ZEN Concentrations (x¯ and SD), Liver
  concentration at 4 weeks: 18.2 ± 5.92 ng/g
liver, 40 μg/kg BW daily, Week V of exposure, total ZEN dose 1400 µg/kg BW, read-out: ZEN Concentrations (x¯ and SD), Liver
  concentration at 5 weeks: 20 ± 2.43 ng/g
liver, 40 μg/kg BW daily, Week VI of exposure, total ZEN dose 1680 µg/kg BW, read-out: ZEN Concentrations (x¯ and SD), Liver
  concentration at 6 weeks: 23 ng/g
liver, 40 μg/kg BW, Week III of exposure, total ZEN dose 840 µg/kg BW, read-out: ZEN Concentrations (x¯ and SD), Liver
  concentration at 3 weeks: 13 ± 1.78 ng/g
Transverse colon, 40 μg/kg BW daily, Week IV of exposure, total ZEN dose 1120 µg/kg BW, read-out: ZEN Concentrations (x¯ and SD), Transverse Colon
  concentration at 4 weeks: 7.4 ng/g
Transverse colon, 40 μg/kg BW daily, Week V of exposure, total ZEN dose 1400 µg/kg BW, read-out: ZEN Concentrations (x¯ and SD), Transverse Colon
  concentration at 5 weeks: 6.49 ± 0.96 ng/g
Transverse colon, 40 μg/kg BW, Week II of exposure, total ZEN dose 560 µg/kg BW, read-out: ZEN Concentrations (x¯ and SD), Transverse Colon
  concentration at 2 weeks: 4.63 ± 3.86 ng/g
Transverse colon, 40 μg/kg BW, Week III of exposure, total ZEN dose 840 µg/kg BW, read-out: ZEN Concentrations (x¯ and SD), Transverse Colon
  concentration at 3 weeks: 3.94 ± 0.57 ng/g
Transverse colon, 40 μg/kg BW, Week VI of exposure, total ZEN dose 1680 µg/kg BW, read-out: ZEN Concentrations (x¯ and SD), Transverse Colon
  concentration at 6 weeks: 6.7 ± 0.25 ng/g
